Literature values as cited in US8992954B2, “Compositions comprising a derivative of 5-aminolevulinic acid” (Photocure ASA, priority 2010, dated 2015).

System: skin
Conditions: Eucerin cream base with 5%, 10% and 20% by weight of ALA; occlusion 4 hours; visible light

**Q.** Which results are given for `NCC(=O)CCC(=O)O` [Composition 5-ALA, 5-amino-4-oxo-pentanoic acid]?
**A.** Complaints during illumination: All volunteers complained about burning and itching; Pigmentary response: pigmentary response was observed; Skin reactions after the illumination: erythema and edema appeared
